Values after ≈ are worked out from the molar mass of the structure shown.

The test system of data set [1] is aspergillus fumigatus infection of BEAS2B cells. In words: Aspergillus fumigatus infection of bronchial epithelial cells (GM in supernatant). The settings on record: bronchial epithelial cells infected with Aspergillus fumigatus; read-out: MIC50 Infection of BEAS2B cells. The class given is cell-based. As for the experimental part: BEAS2B cells were seeded in 96-well plates (100 µL; 30,000 cells / well; Catalogue No 3596, Sigma Aldrich, Dorset, UK) in 10% FBS RPMI-1640 and were then incubated (37° C., 5% CO2) for one day before experimentation. Test compounds (0.5 µL DMSO solution) or vehicle (DMSO) were added to each well to give a final DMSO concentration of 0.5%. BEAS2B cells were incubated with test compounds for 1 hr (35° C., 5% CO2) before infection with aspergillus fumigatus (20 µL; Public Health England) conidia suspension (0.5×10^5 /ml in 10% FBS RPMI-1640). The plate was incubated for 24 hr (35° C., 5% CO2). Supernatant (50 µL) was collected and transferred to a PCR plate (Catalogue No L1402-9700, Starlab, Milton Keynes, UK), which was frozen (-20° C.) until use. After thawing, supernatant (5 µL) was diluted 1:20 by adding R7-PBS solution (95 µL; 1:4 R7 to PBS; Bio-Rad Laboratories, Redmond, WA, USA). GM levels in these samples (50 µL) were measured using Platelia GM-EIA kits (Bio-Rad Laboratories, Redmond, WA, USA). The percentage inhibition for each well was calculated and the IC50 value was calculated from the concentration-response curve generated for each test compound.

For data set [2], the system named is Aspergillus fumigatus NCPF7099. Kind of data set: Broth microdilution assay (modified EUCAST). The class given is cell-based. To be noted: Aspergillus fumigatus, NCPF7099, n = 3, read-out: MIC75 against Aspergillus fumigatus isolate NCPF7099. As for the experimental part:
(§1) This assay was conducted using a modified method published by EUCAST (Rodriguez-Tudela et al., 2008). Spores of aspergillus fumigatus (NCPF2010, NCPF7010 (Methionine 220 mutation), NCPF7099 (Glycine G54 mutation) from Public Health England, Wiltshire; TR34/L98H mutants from St Louis Hospital, Paris, France) were cultured in Sabouraud dextrose agar for 3 days. A stock spore suspension was prepared from a Sabouraud dextrose agar culture by washing with PBS-tween (10 mL; PBS containing 0.05% Tween-20, 100 U/mL Penicillin and 100 U/mL Streptomycin). The spore count was assessed using a Neubauer haemocytometer and then adjusted to 10^6 spores/mL with PBS. A working suspension of spores (2 × 10^5 spores/mL) was prepared in filter sterilised, BSA MOPS RPMI-1640 (50 mL; RPMI-1640 containing 2 mM L-glutamine, 0.5% BSA, 2% glucose, 0.165 M MOPS, buffered to pH 7 with NaOH). For the assay, BSA MOPS RPMI-1640 (50 µL/well) was added throughout the 384-well plate (Catalogue number 353962, BD Falcon, Oxford, UK) first. Test compounds (0.5 µL DMSO solution) were then added in quadruplicate using an Integra VIAFLO 96 (Integra, Zizers, Switzerland), and mixed well using a plate mixer. Subsequently 50 µL of the working spore suspension prepared above was added to all wells except non-spore control wells. For non-spore control wells, BSA MOPS-RPMI solution (50 µL/well) was added instead. The plate was covered with a plastic lid, and incubated (35° C. with ambient air) for 48 hr. The OD of each well at 530 nm was determined using a multi-scanner (Clariostar: BMG, Buckinghamshire, UK). The percentage inhibition for each well was calculated and the MIC50, MIC75 and MIC90 values were calculated from the concentration-response curve generated for each test compound.
For orientation: In broth dilution the organism is exposed to a series of concentrations in liquid medium.

The test system of data set [3] is Aspergillus fumigatus NCPF2010. In words: Broth microdilution assay (modified EUCAST). The class given is cell-based. To be noted: Aspergillus fumigatus, NCPF2010, read-out: MIC75 against Aspergillus fumigatus isolate NCPF2010. As for the experimental part:
as §1

Data set [4] concerns Aspergillus fumigatus L98H (TR34/L98H). Kind of data set: Broth microdilution assay (modified EUCAST). It counts as cell-based. The settings on record: Aspergillus fumigatus, read-out: MIC75 against Aspergillus fumigatus isolate L98H. The procedure: as §1
Data set [5] in a line: Cell viability: resazurin assay. It counts as cell-based, human. The settings on record: human, BEAS2B cells; n = 3-5. The procedure: BEAS2B cells were seeded in 384-well plates (100 µL; 3000 / well /; BD Falcon, Catalogue No 353962) in RPMI-LHC8 (RPMI-1640 and LHC8 media combined in equal proportions) one day before experimentation. For cell-free control wells, RPMI-LHC8 (100 µL) was added. Test compounds (0.5 µL of a DMSO solution) were added to give a final DMSO concentration of 0.5% using an Integra VIAFLO 96 (Integra, Zizers, Switzerland). BEAS2B cells were incubated with each test compound for 1 day (37° C. / 5% CO2 in RPMI-LHC8). After addition of resazurin stock solution (5 µL, 0.04%) the plates were incubated for a further 4 hr (37° C. / 5% CO2). The fluorescence of each well at 545 nm (excitation) and 590 nm (emission) was determined using a multi-scanner (Clariostar: BMG Labtech). The percentage loss of cell viability was calculated for each well relative to vehicle (0.5% DMSO) treatment. Where appropriate, a CC50 value was calculated from the concentration-response curve generated from the concentration-response curve for each test compound.

Data set [6] deals with Aspergillus fumigatus NCPF7100. Kind of data set: Broth microdilution assay (modified EUCAST). The class given is cell-based. The settings on record: Aspergillus fumigatus, NCPF7100, read-out: MIC75 against Aspergillus fumigatus isolate NCPF7100.

For the compound `Cc1cc(N2CCN(c3ccc(C(=O)Nc4ccc(F)cn4)cc3)CC2)ccc1OC[C@@H]1CO[C@@](Cn2cncn2)(c2ccc(F)cc2F)C1` [Example 6, 4-(4-(4-(((3R,5R)-5-((1H-1,2,4-Triazol-1-yl)Methyl)-5-(2,4-Difluorophenyl)Tetra Hydrofuran-3-yl)Methoxy)-3-Methylphenyl)Piperazin-1-yl)-N-(5-Fluoropyridin-2-yl) Benzamide], in data set [1], the MIC50 is 0.0239 µM (≈ 0.0163 µg/mL). Moreover, the MIC in data set [2] amounted to 0.0212 µM (≈ 0.0145 µg/mL); in data set [3], 0.0125 µM (≈ 0.00855 µg/mL); in data set [4], 0.131 µM (≈ 0.0896 µg/mL); in data set [6], 0.0214 µM (≈ 0.0146 µg/mL). The compound further yielded a CC50 at 1 day in data set [5] of more than 14.6 µM.

As to `Cc1cc(N2CCN(c3ccc(C(=O)Nc4ccc(C#N)cn4)cc3)CC2)ccc1OC[C@@H]1CO[C@@](Cn2cncn2)(c2ccc(F)cc2F)C1` [Example 7], the MIC50 in data set [1] is 0.0125 µM (≈ 0.00863 µg/mL). Besides, the MIC in data set [2] was 0.0141 µM (≈ 0.00974 µg/mL); in data set [3], 0.00586 µM (≈ 0.00405 µg/mL); in data set [4] it was 0.0419 µM (≈ 0.0289 µg/mL); in data set [6], 0.00407 µM (≈ 0.00281 µg/mL). Also, the CC50 at 1 day in data set [5] was more than 14.5 µM.

Turning to `Cc1cc(N2CCN(c3ccc(C(=O)Nc4cccc(C#N)c4)cc3)CC2)ccc1OC[C@@H]1CO[C@@](Cn2cncn2)(c2ccc(F)cc2F)C1` [Example 8, 4-(4-(4-(((3R,5R)-5-((1H-1,2,4-triazol-1-yl)methyl)-5-(2,4-difluorophenyl)tetrahydrofuran-3-yl)methoxy)-3-methylphenyl)piperazin-1-yl)-N-(3-cyanophenyl)benzamide], in data set [1], the MIC50 was 0.0142 µM (≈ 0.00979 µg/mL). Besides, the MIC in data set [2] was more than 1.45 µM; in data set [3], 0.0127 µM (≈ 0.00876 µg/mL); in data set [4], more than 1.45 µM; in data set [6] it was more than 1.45 µM. This compound also registered a CC50 at 1 day in data set [5] of 0.548 µM.

As to `Cc1cc(N2CCN(c3ccc(C(=O)Nc4ccc(C#N)cc4)cc3)CC2)ccc1OC[C@@H]1CO[C@@](Cn2cncn2)(c2ccc(F)cc2F)C1` [Example 9, 4-(4-(4-(((3R,5R)-5-((1H-1,2,4-triazol-1-yl)methyl)-5-(2,4-difluorophenyl)tetrahydrofuran-3-yl)methoxy)-3-methylphenyl)piperazin-1-yl)-N-(4-cyanophenyl)benzamide], the MIC50 in data set [1] was found to be 0.00521 µM (≈ 0.00359 µg/mL). Besides, the MIC in data set [2] is 0.00739 µM (≈ 0.0051 µg/mL); in data set [3], 0.0291 µM (≈ 0.0201 µg/mL); in data set [4] it was 0.114 µM (≈ 0.0786 µg/mL); in data set [6], 0.0232 µM (≈ 0.016 µg/mL). This compound also had a CC50 at 1 day in data set [5] of more than 14.5 µM.

As to `Cc1cc(N2CCN(c3ccc(C(=O)Nc4ccc(C#N)cc4)cc3)CC2)cc(C)c1OC[C@@H]1CO[C@@](Cn2cncn2)(c2ccc(F)cc2F)C1` [Example 11, 4-(4-(4-(((3R, 5R)-5-((1H-1,2,4-triazol-1-yl)methyl)-5-(2,4-difluorophenyl)tetrahydrofuran-3-yl)methoxy)-3,5-dimethylphenyl)piperazin-1-yl)-N-(4-cyanophenyl)benzamide], the MIC50 in data set [1] worked out at 0.284 µM (≈ 0.2 µg/mL). Moreover, the MIC in data set [2] came out at 0.049 µM (≈ 0.0345 µg/mL); in data set [3] it was 0.0236 µM (≈ 0.0166 µg/mL); in data set [4], 0.179 µM (≈ 0.126 µg/mL); in data set [6], 0.0529 µM (≈ 0.0372 µg/mL). For the same compound, the half-maximal cytotoxic concentration (CC50) at 1 day in data set [5] was more than 14.2 µM.

On to `Cc1cc(N2CCN(c3ccc(C(=O)Nc4ccc(OC(F)F)cc4)cc3)CC2)ccc1OC[C@@H]1CO[C@@](Cn2cncn2)(c2ccc(F)cc2F)C1` [Example 12, 4-(4-(4-(((3R,5R)-5-((1H-1,2,4-triazol-1-yl)methyl)-5-(2,4-difluorophenyl)tetrahydrofuran-3-yl)methoxy)-3-methylphenyl)piperazin-1-yl)-N-(4-difluoromethoxyphenyl)benzamide], for which, in data set [1], the MIC50 is 0.0973 µM (≈ 0.0711 µg/mL). The MIC is 0.0228 µM (≈ 0.0167 µg/mL) in data set [2], 0.0134 µM (≈ 0.00979 µg/mL) in data set [3], 0.0459 µM (≈ 0.0335 µg/mL) in data set [4] and 0.0303 µM (≈ 0.0221 µg/mL) in data set [6]. Also, in data set [5], the CC50 at 1 day was more than 13.7 µM.

On to `Cc1cc(N2CCN(c3ccc(C(=O)Nc4cccc(F)c4)cc3)CC2)ccc1OC[C@@H]1CO[C@@](Cn2cncn2)(c2ccc(F)cc2F)C1` [Example 14, 4-(4-(4-(((3R, 5R)-5-((1H-1,2,4-triazol-1-yl)methyl)-5-(2,4-difluorophenyl)tetrahydrofuran-3-yl)methoxy)3-methylphenyl)piperazin-1-yl)-N-(3-fluorophenyl)benzamide], for which the MIC50 in data set [1] is 0.00836 µM (≈ 0.00571 µg/mL). The MIC in data set [2] is 0.0332 µM (≈ 0.0227 µg/mL); in data set [3], 0.0431 µM (≈ 0.0294 µg/mL); in data set [4], 0.0735 µM (≈ 0.0502 µg/mL); in data set [6], 0.041 µM (≈ 0.028 µg/mL). Moreover, the CC50 at 1 day in data set [5] is more than 14.6 µM.

For `Cc1cc(N2CCN(c3ccc(C(=O)Nc4ccc(F)cc4)cc3)CC2)cc(C)c1OC[C@@H]1CO[C@@](Cn2cncn2)(c2ccc(F)cc2F)C1` [Example 15, 4-(4-(4-(((3R,5R)-5-((1H-1,2,4-triazol-1-yl)methyl)-5-(2,4-difluorophenyl)tetrahydrofuran-3-yl)methoxy)-3,5-dimethylphenyl)piperazin-1-yl)-N-(4-fluorophenyl)benzamide], in data set [1], the MIC50 was 0.00764 µM (≈ 0.00532 µg/mL). Moreover, the MIC was 0.0184 µM (≈ 0.0128 µg/mL) in data set [2], 0.029 µM (≈ 0.0202 µg/mL) in data set [3], more than 1.44 µM in data set [4] and 0.00845 µM (≈ 0.00589 µg/mL) in data set [6]. Further, the CC50 at 1 day in data set [5] was more than 14.4 µM.

Regarding `CNS(=O)(=O)c1ccc(NC(=O)c2ccc(N3CCN(c4ccc(OC[C@@H]5CO[C@@](Cn6cncn6)(c6ccc(F)cc6F)C5)c(C)c4)CC3)cc2)cc1` [Example 20, 4-(4-(4-(((3R, 5R)-5-((1H-1,2,4-triazol-1-yl)methyl)-5-(2,4-difluorophenyl)tetrahydrofuran-3-yl)methoxy)-3-methylphenyl)piperazin-1-yl)-N-(4-(N-methylsulfamoyl)phenyl)benzamide], in data set [1], the MIC50 was found to be 0.0361 µM (≈ 0.0274 µg/mL). Also, the MIC came to 0.0111 µM (≈ 0.00841 µg/mL) in data set [2], 0.0188 µM (≈ 0.0142 µg/mL) in data set [3], 0.0461 µM (≈ 0.0349 µg/mL) in data set [4] and 0.0146 µM (≈ 0.0111 µg/mL) in data set [6]. The CC50 at 1 day in data set [5] is more than 13.2 µM.

Take `Cc1cc(N2CCN(c3ccc(C(=O)Nc4ccc(S(=O)(=O)N(C)C)cc4)cc3)CC2)ccc1OC[C@@H]1CO[C@@](Cn2cncn2)(c2ccc(F)cc2F)C1` [Example 21]: the MIC50 in data set [1] is 0.00386 µM (≈ 0.00298 µg/mL). In addition, the MIC in data set [2] is 0.0211 µM (≈ 0.0163 µg/mL); in data set [3] it was 0.0374 µM (≈ 0.0289 µg/mL); in data set [4], 0.0517 µM (≈ 0.0399 µg/mL); in data set [6], 0.0317 µM (≈ 0.0245 µg/mL). In data set [5], the CC50 at 1 day is more than 13 µM.

A word on the MIC50: it is the lowest concentration that inhibits either 50% of growth or 50% of the strains tested, depending on the study. What is called CC50 is the concentration that lowers cell viability or growth by half. A high value points to lower toxicity to the cells.

Values taken from patent publication US20230295133A1, “PROCESS FOR PREPARING A COMPOUND USEFUL TO TREAT MYCOSES” (PULMOCIDE LIMITED, priority 2014, published 2023).
